We go through 1 substance from patent US9579322B2, “Methods for treating neurologic disorders” (EIP Pharma, LLC, priority 2014, dated 2017).

The test system of series [1] is sensory-motor recovery after tMCAO. Description: Transient MCAO in rats, functional recovery. Conditions: for change in cylinder test performance from day 7 to day 35: relative to vehicle; for functional recovery, 7-point neuroscore / functional recovery, 20-point neuroscore / functional recovery, limb placing: day 3 to day 42, versus vehicle. In kind it is in vivo, Sprague-Dawley rats. The protocol:
The objective of this study was to investigate whether chronic twice-a-day treatment with VX-745 started at 48 hours post-occlusion provides sensory-motor recovery and neuroprotection in rats subjected to 120 min middle cerebral artery occlusion (tMCAO) at day 0. Seven and 20-point Neuroscore tests were performed to study sensory-motor deficits and general condition on days 1, 3, 7, 14, 21, 28, 35 and 42 post-ischemia. Cylinder test was performed on days 7, 14, 21 and 35 post-ischemia and limb-placing tests on days 1, 3, 7, 14, 21, 28, 35 and 42. Infarct volume was evaluated by T2-MRI at 24 h post-ischemia and rats were allocated to treatment groups based on the lesion data on day 2 and treatment was started after MRI on day 2. Methods—Male Sprague-Dawley rats were subjected to twice-a-day chronic treatment with VX-745 starting at 48 h after 120 min tMCAO. Lesion size was measured at 24 h with MRI and rats were allocated to dosing groups on day 2 (tMCAO performed on day 0) based on lesion size and limb placing results. Rats were treated with 2 different doses and underwent sensorimotor behavioral test throughout the experiment. Seven and 20-point Neuroscore and limb placing tests were performed to study sensory-motor deficits and general condition before occlusion and on days 1, 3, 7, 14, 21, 28, 35 and 42 post-ischemia. Cylinder test was performed before occlusion and on days 7, 14, 21 and 35 post-ischemia. Animals. Altogether 45 adult male Sprague Dawley rats, purchased from Charles River Laboratories (Sulzfeld, Germany), and weighing 250-300 g were used for the experiment. Animals were housed at a standard temperature (22±1° C.) and in a light-controlled environment (lights on from 7 am to 8 pm) with ad libitum access to food and water. • Group A: 15 tMCAO animals treated twice-a-day with vehicle from day 2 to 42 (5 ml/kg, p.o) • Group B: 15 tMCAO animals treated twice-a-day with VX-745 from day 2 to 42 (1.5 mg/kg, p.o). • Group C: 15 tMCAO animals treated twice-a-day with VX-745 from day 2 to 42 (4.5 mg/kg, p.o). Transient MCAO Transient focal cerebral ischemia was produced by MCA occlusion at Day 0 in male Sprague-Dawley rats according to Koizumi with modifications (Koizumi et al. Jpn. J. Stroke 8:1-8, 1986). The rats were anesthetized with 5% isoflurane (in 70% N2O and 30% O2; flow 300 ml/min). During the operation the concentration of anesthetic was reduced to 1.0-2.0%. The rectal temperature was maintained at 37.0±1.0° C. with a homeothermic blanket system. After midline skin incision, the right common carotid artery (CCA) was exposed, and the external carotid artery (ECA) was ligated distal from the carotid bifurcation. A 0.22-mm diameter monofilament nylon thread, with blunted tip, was inserted 22-23 mm into the internal carotid artery (ICA) up to the origin of MCA. After the monofilament insertion, CCA was occluded for 2 hours with a suture. After 120 min of ischemia, the MCA blood flow was restored by removal of the filament and the suture. The wound was closed, disinfected, and the animals were allowed to recover from anesthesia. The rats were carefully monitored for possible post-surgical complications after the tMCAO. The rats were fed with standard laboratory diet suspended in tap water after the tMCAO. To prevent dehydration all rats were given an i.p. injection of saline (4 mL per rat) once or twice-a-day as needed. Drug Delivery. VX-745 or vehicle was administered p.o. (5 ml/kg) starting after MRI at 48 h post-ischemia (i.e. Day 2) and continued twice-a day (morning and afternoon) until endpoint day 42. MRI acquisitions in vivo for all rats were performed at 24 h after tMCAO (i.e. […] Rats were allocated to treatment groups on day 2 based on the lesion data and treatment was started on day 2. A 20-point Neuroscore test was used to assess post-ischemic motor and behavioral deficits. The neurological test was conducted by a blinded investigator at pre-stroke (baseline) and on days 1, 3, 7, 14, 21, 28, 35 and 42 post-ischemia. […]

A further series has as its system hyperalgesic response. Conditions: cited from earlier work.
The nature of series [2]: Plasma concentration by LC-MS/MS 1 hour post dosing. In kind it is in vivo, Fischer rats. Here is the method:
The primary objective of this study was to investigate whether pre-treatment with compound VX-745 alleviates cognitive defects in aged rats. Plasma concentration of VX-745 was determined with LC-MS/MS at the end of the study from samples collected 1 hour post dosing. In addition, protein levels of PSD95 in ventral cortex and hippocampus, and levels of IL-1β in the hippocampus were analyzed by specific ELISA assays to evaluate the potential anti-inflammatory effects of VX-745 in the brain
One hour after the last vehicle or VX-745 morning dosing, the animals (10 per dosing group) were deeply anesthetized with pentobarbital and blood samples were collected by cardiac puncture. 500 μl of blood was collected into EDTA microtubes, centrifuged, and plasma collected. The brains were perfused with heparinized saline, and the brains were collected. Right hemisphere was post-fixed by immersion in 4% PFA in 0.1 M PB for 24 h. After a brief wash with phosphate buffer, the hemisphere was cryoprotected in 30% sucrose in PB for 2-3 days, after which it was frozen on liquid nitrogen and stored at −80° C. for optional future immunohistochemical analysis. Left hemisphere was dissected to ventral and dorsal cortex, hippocampus and remaining brain fraction and fresh frozen on dry ice.
Plasma samples were processed using acetonitrile precipitation and then analyzed for VX745 drug concentration by LC-MS/MS

The next series relates to amyloid plaque load. Description: 2-week pilot study in aged Tg2576 mice. Conditions: 26 month old Tg2576 mice, 2 weeks, versus control animals. In kind it is in vivo.

Regarding VX-745, the “change in cylinder test performance from day 7 to day 35” value in series [1] (1.5 mg/kg p.o. twice-a-day) is on record as “a trend (p=0.088, two-sided t-test) towards increased improvement”; in series [1] (4.5 mg/kg p.o. twice-a-day), “not evident”. The “functional recovery, 7-point neuroscore” value in series [1] (1.5 mg/kg) and in series [1] (4.5 mg/kg) was “not further improve functional recovery” each time. The “functional recovery, 20-point neuroscore” value in series [1] (1.5 mg/kg) and in series [1] (4.5 mg/kg) was “not further improve functional recovery” in each case. The “functional recovery, limb placing” value in series [1] (1.5 mg/kg) and in series [1] (4.5 mg/kg) was “not further improve functional recovery” throughout. Moreover, the “functional recovery, 1.5 mg/kg group compared with 4.5 mg/kg group” value in series [1] (all measures, change analysis) is “consistently better”. Besides, in the series with hyperalgesic response (3 mg/kg), the “effect on hyperalgesia at the 3 mg/kg dose” value was “minimal effect”. The “inhibition of hyperalgesic response” value in the series on hyperalgesic response (rats, 30 mg/kg, 10 mg/kg and 3 mg/kg) was “significant inhibition of hyperalgesic response”. Moreover, the “plasma drug concentration relative to concentrations needed for IL-1β inhibition” value was “reached drug concentrations required for blocking IL-1β signaling” in series [2] (1.5 mg/kg) and “reached concentrations exceeding whole blood IC50 for IL-1β production” in series [2] (4.5 mg/kg). Moreover, in series [2] (0.5, 1.5 and 4.5 mg/kg p.o. BID, aged rats), the “plasma drug levels one hour after last dose” value is “increased in a dose proportional manner”. Moreover, the amyloid plaque load result with amyloid plaque load is given as “lower amyloid plaque load than control animals”.
